Experiments:
[1] = biological target: staphylococcal α-hemolysin (αHL) channels (Staphylococcus aureus, UniProt P09616); type: biochemical
[2] = Gramicidin D conductance change in lipid bilayer formed across nanoaperture; type: biochemical; details: 5 to 20 μl of 2 mg/ml gD in ethanol added to each bath; within minutes; capacitance remained constant
Source text: Lipid bilayers were formed by the method of Montal and Mueller (1972). In practicing the Langmuir-Blodgett technique, one raises two lipid monolayers across an aperture, allowing the lipids to align their hydrophobic tail portions across the aperture so as to form a lipid bilayer. Because of the hydrophobic nature of the lipid tails, in order to form stable bilayers the surface of a BSP must also be hydrophobic. If the substrate is hydrophobic, the lipids can smoothly transition from coating the substrate to spanning the aperture. To reverse the wetting properties of the naturally hydrophilic silicon nitride, the silicon nitride was coated with an alkylsilane (octyltrichlorosilane). Application of this coating was quite simple and very effective. It was not found to be possible to form a bilayer with untreated devices. Use of longer carbon chain silanes or alternative-materials to make the surface even more hydrophobic would further increase bilayer stability.
For smaller apertures, it was more difficult to observe the capacitance change the background. In this case, membrane-bound proteins that affect the electrical properties of the bilayer, such as carriers and ion channels, offered the best proof of the formation of a bilayer. The ion channel peptide Gramicidin D (gD), was chosen for ease of use and large conductance change. […]

Chain of staphylococcal α-hemolysin (αHL) channels (P09616 27-319 limits assumed): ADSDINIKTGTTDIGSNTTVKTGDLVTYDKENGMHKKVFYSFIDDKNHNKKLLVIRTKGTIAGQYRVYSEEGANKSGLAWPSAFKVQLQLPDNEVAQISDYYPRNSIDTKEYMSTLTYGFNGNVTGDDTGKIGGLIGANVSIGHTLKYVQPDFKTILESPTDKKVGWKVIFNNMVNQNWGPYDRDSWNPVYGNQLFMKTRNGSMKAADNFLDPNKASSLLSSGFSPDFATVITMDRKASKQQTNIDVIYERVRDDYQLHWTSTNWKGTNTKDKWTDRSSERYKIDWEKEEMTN

| Compound | current reduction when a channel becomes blocked [1] [%] | conductance of the bilayer [2] |
| --- | --- | --- |
| OC[C@H]1O[C@@H]2O[C@H]3[C@H](O)[C@@H](O)[C@@H](O[C@H]4[C@H](O)[C@@H](O)[C@@H](O[C@H]5[C@H](O)[C@@H](O)[C@@H](O[C@H]6[C@H](O)[C@@H](O)[C@@H](O[C@H]7[C@H](O)[C@@H](O)[C@@H](O[C@H]8[C@H](O)[C@@H](O)[C@@H](O[C@H]1[C@H](O)[C@H]2O)O[C@@H]8CO)O[C@@H]7CO)O[C@@H]6CO)O[C@@H]5CO)O[C@@H]4CO)O[C@@H]3CO [βCD, β-cyclodextrin] | 70±4 | – |
| Gramicidin D | – | dramatically increased |
